Laboratory results taken from patent US20150306182A1, “FAT LOSS COMPOSITION” (priority 2012, published 2015).
Values joined by “and” are separate entries in the source; they are usually repeats but may differ in a detail not shown here. Identical values can stand only once. “Also recorded” adds a separate entry of the source. No end group written: not given here.

Experiments:
[1] = Four week trial of amino acids 176-191 of human growth hormone alone (Example 2); format: in vivo; conditions: for Bowel Habits (per day): one value per test subject
Source text: Ten subjects were given a daily subcutaneous dose of 2 International Units (IU) of amino acids 176-191 of human growth hormone for a four week trial period.

[2] = cited from earlier work
[3] = Cloprostenol sodium alone in male and female subjects (Example 1); format: in vivo, human
Experimental: Cloprostenol sodium was taken by eight male and two female subjects at a dosage of 120 micrograms for every 2501b (113 kg) body weight. The dosage was calculated pro rata based on the weight of the subject involved.
With the female subjects the process was identical. However, the dosage was reduced to 15 μg per shot for menstrual reasons.

[4] = molecular target: T1, hGH receptor (Homo sapiens, UniProt P10912); conditions: unlike Human Growth Hormone; cited from earlier work
T1 sequence (P10912 19-638): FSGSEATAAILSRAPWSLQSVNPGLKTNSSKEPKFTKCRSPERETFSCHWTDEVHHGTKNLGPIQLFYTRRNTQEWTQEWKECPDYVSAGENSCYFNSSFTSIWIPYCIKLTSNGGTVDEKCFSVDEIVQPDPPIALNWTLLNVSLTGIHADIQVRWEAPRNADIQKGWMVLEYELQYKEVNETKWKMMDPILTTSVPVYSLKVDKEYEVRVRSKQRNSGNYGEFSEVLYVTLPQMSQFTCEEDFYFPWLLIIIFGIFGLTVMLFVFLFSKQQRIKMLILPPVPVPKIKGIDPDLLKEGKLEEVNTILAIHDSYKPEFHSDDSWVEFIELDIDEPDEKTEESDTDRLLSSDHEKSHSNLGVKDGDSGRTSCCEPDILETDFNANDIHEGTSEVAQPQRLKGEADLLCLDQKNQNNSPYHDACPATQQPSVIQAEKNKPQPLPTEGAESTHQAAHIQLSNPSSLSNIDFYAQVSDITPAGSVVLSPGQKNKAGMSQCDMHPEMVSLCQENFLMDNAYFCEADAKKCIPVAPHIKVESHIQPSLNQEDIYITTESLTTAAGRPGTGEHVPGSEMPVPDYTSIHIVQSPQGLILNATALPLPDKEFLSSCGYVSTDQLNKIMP

[5] = test system: cell proliferation; conditions: unlike Human Growth Hormone; cited from earlier work
[6] = test system: ob/ob mice; conditions: cited from earlier work
[7] = test system: isolated adipose tissue from obese rodents; conditions: cited from earlier work
[8] = test system: isolated adipose tissue from obese humans; conditions: cited from earlier work
[9] = test system: adipose tissue; conditions: cited from earlier work
[10] = minimal dose of 40 μg; cited from earlier work
[11] = acute administration in humans, case reports; cited from earlier work
[12] = ten subjects, daily subcutaneous 2 IU, four weeks

In the case of “YLRIVQCRSVEGSCGF (cysteine pairing not given here) [HGH fragment 176-191, freely available commercially]”, the “Body Fat” value ([1]; Test subject 1, Week 4, start 17%) is reported as 15%, the Weight ([1]; Test subject 1, Week 4, start 98 kg) is reported as “(96 kg)” and the Weight ([1]; Test subject 1, Week 4, start 217 lb) is reported as 212 lb. The “Body Fat” value ([1]; Test subject 2, Week 4, start 31%) was 28%, the Weight ([1]; Test subject 2, Week 4, start 92 kg) was “(89 kg)” and the Weight ([1]; Test subject 2, Week 4, start 203 lb) was 196 lb. For the same compound, the “Body Fat” value ([1]; Test subject 3, Week 4, start 18%) was 15%, the Weight ([1]; Test subject 3, Week 4, start 108 kg) was “(106 kg)” and the Weight ([1]; Test subject 3, Week 4, start 238 lb) was 233 lb. For the same compound, the “Body Fat” value ([1]; Test subject 4, Week 4, start 10%) was 10%, the Weight ([1]; Test subject 4, Week 4, start 92 kg) was “(92 kg)” and the Weight ([1]; Test subject 4, Week 4, start 203 lb) was 203 lb. The “Body Fat” value ([1]; Test subject 5, Week 4, start 25%) was 24%, the Weight ([1]; Test subject 5, Week 4, start 105 kg) was “(103 kg)” and the Weight ([1]; Test subject 5, Week 4, start 231 lb) was 226 lb. The “Body Fat” value ([1]; Test subject 6, Week 4, start 32%) was 30%, the Weight ([1]; Test subject 6, Week 4, start 68 kg) was “(67 kg)” and the Weight ([1]; Test subject 6, Week 4, start 150 lb) was 147 lb. The “Body Fat” value ([1]; Test subject 7, Week 4, start 30%) was 28%, the Weight ([1]; Test subject 7, Week 4, start 79 kg) was “(76 kg)” and the Weight ([1]; Test subject 7, Week 4, start 173 lb) was 168 lb. The “Body Fat” value ([1]; Test subject 8, Week 4, start 34%) was 30%, the Weight ([1]; Test subject 8, Week 4, start 108 kg) was “(103 kg)” and the Weight ([1]; Test subject 8, Week 4, start 238 lb) was 226 lb. The “Body Fat” value ([1]; Test subject 9, Week 4, start 10%) was 10%, the Weight ([1]; Test subject 9, Week 4, start 79 kg) was “(79 kg)” and the Weight ([1]; Test subject 9, Week 4, start 175 lb) was 175 lb. For the same compound, the “Body Fat” value ([1]; Test subject 10, Week 4, start 21%) was 18%, the Weight ([1]; Test subject 10, Week 4, start 86 kg) was “(83 kg)” and the Weight ([1]; Test subject 10, Week 4, start 189 lb) was 182 lb. The “Bowel Habits (per day)” value ([1]; Week 1, daily subcutaneous 2 IU) was 2 per day and 1 per day, the “Bowel Habits (per day)” value ([1]; Week 2, daily subcutaneous 2 IU) was 2 per day and 1 per day and the “Bowel Habits (per day)” value ([1]; Week 3, daily subcutaneous 2 IU) was 1 per day and 2 per day. The “Bowel Habits (per day)” value ([1]; Week 4, daily subcutaneous 2 IU) was 1 per day and 2 per day, the Completion of trial [1, 12] was “All subjects completed the four week trial” and the “Reduction in body fat and weight loss” value [1, 12] was “no real reduction in body fat or meaningful weight loss”. The Side effects ([2]; clinical trial and experimental users) was “No side effects have been reported”, the “Stimulation of the metabolism of body fat” value ([2]; humans) was “highly successful at stimulating the metabolism of body fat in humans” and the “Average overall weight loss (fat)” value ([2]; in three months, oral dosing) was 3 kg. For the same compound, the “Most effective daily dose” value ([2]; lowest of 6 doses, oral, 3 months) was 1 mg and the “Weight loss relative to test subjects not taking the peptide” value ([2]; three months, more than subjects not taking the peptide) was 300%.

In the case of O=C(O)CCC/C=C\CC1C(O)CC(O)C1/C=C/C(O)COc1cccc(Cl)c1 (centres unmarked) [Cloprostenol sodium, cloprostenol sodium], the “Willingness to continue use” value ([3]; all recipients) is reported as “None of the recipients wished to continue to use this product for more than three days”, the “Side effects and willingness to continue in females” value ([3]; females, 15 μg per shot) is reported as “No female subjects wished to continue using this product due to severe stomach cramps” and the “Side effects in males” value ([3]; males, shots of 30 μg at a time) is reported as “very severe stomach cramps and extensive bowel movements”. The “Comments (stopping of use)” value ([3]; same dosing, one comment per test subject) was “Stopped after 2 days; also recorded: Stopped as cramp and pain; also recorded: Stopped after 1st day; also recorded: Stopped after 3 days”.

In the case of “HGH Fragment 177-191: Human growth hormone fragment of the cited studies; shares amino acid sequence with Human Growth Hormone (LRIVQCRSVEGSCGF; ends and bridges not checked; cysteine pairing not given here; UniProt P01241 203-217, looked up, fragment)”, the “Competition for the hGH receptor” value [4] is given as “does not compete for the hGH receptor”, the “Induction of cell proliferation” value [5] is given as “nor does it induce cell proliferation” and the “Energy expenditure, glucose and fat oxidation” value [6] is given as “increasing energy expenditure and glucose and fat oxidation”. The “In vitro lipogenic activity” value [7] was “decreased lipogenic activity”, the “In vitro lipolytic activity” value [7] was “increased in vitro lipolytic activity” and the “In vitro lipogenic activity” value [8] was “decreased lipogenic activity”. For the same compound, the “In vitro lipolytic activity” value [8] was “increased in vitro lipolytic activity”, the “Lipolytic activity in adipose tissue” value ([9]; dosage of 500 μg) was “increase lipolytic activity in adipose tissue” and the “Impact on insulin sensitivity” value ([9]; in vivo) was “no negative impact on insulin sensitivity”.

For O=C(O)CCC/C=C\C[C@@H]1C(/C=C/[C@@H](O)COc2cccc(Cl)c2)[C@H](O)C[C@@H]1O (stereo partly drawn) [Cloprostenol, (5Z)-7-[(1R,3R,5S)-2-[(E,3R)-4-(3-chlorophenoxy)-3-hydroxybut-1-enyl]-3,5-dihydroxycyclopentyl]hept-5-enoic acid], the “Bowel evacuation after dosing” value [10] is listed as “within ten minutes users will have to evacuate their bowels”.

In the case of O=[N+]([O-])c1ccc(O)c([N+](=O)[O-])c1 [DNP, 2,4-Dinitrophenol], the Lethal acute administration [11] is given as 20 to 50 mg/kg.
